The record followed here is patent US20090215742A1, “AMIDE […]” (PFIZER, INC., priority 2005, published 2009).

For orientation: inhibition means the relative decrease from the control value, in per cent.

In the assay the target is T1, HSP-90 (Homo sapiens, UniProt P07900).
T1 construct: fused on or other part: 6-His tag at the C-terminus
As to the kind of experiment: HSP-90 SPA (scintillation proximity assay) competition binding assay, displacement of tritiated propyl-Geldanamycin. The following applies: for inhibition at 1 µM: read-out: % inhibition @ 1 μM; for inhibition at 10 µM: read-out: % inhibition @ 10 μM. The procedure: Compounds of the present invention were evaluated for potency against HSP-90 using a SPA (scintillation proximity assay) competition binding assay. Briefly, either full length or N-terminal HSP-90 that contains a 6-His tag on its C-terminus binds to copper on Yttrium-silicate scintillant beads via the His-tag. Tritiated propyl-Geldanamycin (pGA), whose structure is shown below, is an analog of a natural inhibitor of HSP-90 called Geldanamycin.
Tritiated pGA, which contains a tritiated propyl-amine group added at the #17 position, binds HSP-90 and brings the isotope into proximity with the beads. […] The beta signal emitted from the isotope excites the scintillant, which creates a measurable signal. As competitive compounds are added to the assay mixture, they compete with bound tritiated pGA at the ATP-binding site on the N-terminal of HSP-90. When a compound displaces the labeled pGA, the signal is reduced (the beta-particles are no longer in proximity with the bead). This reduction in signal is used to quantify the extent to which the inhibitor/compound is competitive with pGA.
Typical reaction solutions contained 30 nM HSP-90 and 200 nM ^3H-pGA in binding buffer (100 mM Hepes, pH 7.5 and 150 mM KCl). […] Inhibitors were added to the HSP-90/^3H-pGA solutions at eleven different concentrations for Ki determinations. […] To determine percent inhibition, the compound was tested at 1 and 10 μM. The final DMSO in the samples was 4%. Copper-Ysi beads (Amersham, #RPNQ0096) that have been diluted in binding buffer were added to each well to give a final concentration of 100 μg/well. The plates were sealed, covered with a foil-covered lid and shaken for 30 minutes at room temperature. The beads were allowed to settle for 30 minutes after which the plates were counted using a Packard TopCount NXT instrument. This procedure has also been adapted for medium throughput using a Beckman Biomek FX. Samples were run in duplicate and on two separate days to assure an accurate value of Ki.
For Ki determinations, the corrected cpm's (actual cpm's minus background) were plotted vs. inhibitor concentration using GraphPad Prism software. […] The IC50 was then used to calculate the Ki by using the Cheng-Prusoff equation: […]
This is normally true when the observed IC50 is […] the HSP-90 concentration. For a tight binding inhibitor, the following equation can be applied: […]
EL and ELo are the radioligand-HSP-90 complexes in the presence and absence of inhibitor, respectively. EL/ELo represents the fractional signal in the presence of inhibitor. Io, Eo, and Lo are the inhibitor, HSP-90, and radioligand concentrations, respectively.
(In general: Scintillation proximity formats need no separation of bound from free tracer.)

`CCOC(=O)C1CCCN(C(=O)c2ccc(O)cc2O)C1` (stereo not drawn) [Example 52, ethyl 1-(2,4-dihydroxybenzoyl)piperidine-3-carboxylate]: the inhibition at 1 µM is 39.1% and the inhibition at 10 µM was found to be 80.2%.

For the compound `CN(Cc1ccc(F)cc1)C(=O)c1ccc(O)cc1O` [Example 105, N-(4-fluorobenzyl)-2,4-dihydroxy-N-methylbenzamide], the inhibition at 1 µM came to 30.2% and the inhibition at 10 µM was 69.3%. On to `O=C(c1ccc(O)cc1O)N1CCC(Oc2cccc(Cl)c2)CC1` [Example 69, 4-{[4-(3-chlorophenoxy)piperidin-1-yl]carbonyl}benzene-1,3-diol], for which the inhibition at 1 µM stood at 33.9% and the inhibition at 10 µM worked out at 76.6%. Take `O=C(c1ccc(O)cc1O)N1CCC(c2ccnc(C(F)(F)F)n2)CC1` [Example 83, 4-({4-[2-(trifluoromethyl)pyrimidin-4-yl]piperidin-1-yl}carbonyl)benzene-1,3-diol]: the inhibition at 1 µM turned out to be 10.1% and the inhibition at 10 µM is 35%.

For the compound `CN(Cc1ccc(Oc2ccccc2)cc1)C(=O)c1ccc(O)cc1O` [Example 107, 2,4-dihydroxy-N-methyl-N-(4-phenoxybenzyl)benzamide], the inhibition at 1 µM was found to be 51.1% and the inhibition at 10 µM is 83.4%. On to `CCOc1cc2c(cc1OCC)CN(C(=O)c1ccc(O)cc1O)CC2` [Example 56, 4-[(6,7-diethoxy-3,4-dihydroisoquinolin-2(1H)-yl)carbonyl]benzene-1,3-diol], for which the inhibition at 1 µM worked out at 27% and the inhibition at 10 µM is 73%. Turning to `O=C(c1ccc(O)cc1O)N1CCSCC1` [Example 133, 4-(thiomorpholin-4-ylcarbonyl)benzene-1,3-diol], the inhibition at 1 µM was determined as 42.6% and the inhibition at 10 µM is 80%. For `COc1ccc2oc(N3CCN(C(=O)c4ccc(O)cc4O)CC3)nc2c1` [Example 127, 4-{[4-(5-methoxy-1,3-benzoxazol-2-yl)piperazin-1-yl]carbonyl}benzene-1,3-diol] the same measures were 21.1% and 60.3%. For `O=C(c1ccc(O)cc1O)N1CCN(c2nc3ccc(Cl)cc3o2)CC1` [Example 125, 4-{[4-(6-chloro-1,3-benzoxazol-2-yl)piperazin-1-yl]carbonyl}benzene-1,3-diol], the inhibition at 1 µM was 22.4% and the inhibition at 10 µM stood at 59.8%. For `Cc1ccc2c(c1)C=CC1(CCN(C(=O)c3ccc(O)cc3O)CC1)O2` [Example 82, 4-[(6-methyl-1′H-spiro[chromene-2,4′-piperidin]-1′-yl)carbonyl]benzene-1,3-diol], the inhibition at 1 µM is 62.8% and the inhibition at 10 µM was 85.3%. As to `O=C(c1ccc(O)cc1O)N1CCOC(COc2ccccc2)C1` (stereo not drawn) [Example 112, 4-{[2-(phenoxymethyl)morpholin-4-yl]carbonyl}benzene-1,3-diol], the inhibition at 1 µM was 48.1% and the inhibition at 10 µM amounted to 80.5%. The like results for `O=C(c1ccc(O)cc1O)N1CCC(Cc2ccc(Cl)cc2)CC1` [Example 43, 4-{[4-(4-chlorobenzyl)piperidin-1-yl]carbonyl}benzene-1,3-diol] were, in that order, 35.9% and 73.6%.

Take `Cc1ccc(OCC2CCCN(C(=O)c3ccc(O)cc3O)C2)cn1` (stereo not drawn) [Example 60, 4-[(3-{[(6-methylpyridin-3-yl)oxy]methyl}piperidin-1-yl)carbonyl]benzene 1,3-diol]: the inhibition at 1 µM is 77.6% and the inhibition at 10 µM worked out at 88.1%.

For `O=C(c1cc(Cl)cc(Cl)c1O)N1Cc2ccccc2C1` [Example 208, 2,4-dichloro-6-(1,3-dihydro-2H-isoindol-2-ylcarbonyl)phenol], the inhibition at 10 µM was 0%. As to `O=C1CCCN1Cc1nnc2n1CCN(C(=O)c1ccc(O)cc1O)CC2` [Example 91, 1-{[7-(2,4-dihydroxybenzoyl)-6,7,8,9-tetrahydro-5H-[1,2,4]triazolo[4,3-d][1,4]diazepin-3-yl]methyl}pyrrolidin-2-one], the inhibition at 1 µM was -7.3% and the inhibition at 10 µM is 12.2%. The like results for `O=C(c1ccc(Cl)cc1O)N1Cc2ccccc2C1` [Example 26, 5-chloro-2-(1,3-dihydro-2H-isoindol-2-ylcarbonyl)phenol] were, in that order, 1% and 39%.

In the case of `CCc1nccc(-c2ccc(O)c(C(=O)N3Cc4ccccc4C3)c2)n1` [Example 34, 2-(1,3-dihydro-2H-isoindol-2-ylcarbonyl)-4-(2-ethylpyrimidin-4-yl)phenol], the inhibition at 1 µM is -3.1% and the inhibition at 10 µM turned out to be 43%.

`CN(Cc1nc2ccccc2o1)C(=O)c1ccc(O)cc1O` [Example 123, N-(1,3-benzoxazol-2-ylmethyl)-2,4-dihydroxy-N-methylbenzamide]: the inhibition at 1 µM was 25.5% and the inhibition at 10 µM is 65.6%.

In the case of `O=C(c1ccc(O)cc1O)N1CCOC(COc2cccc(Cl)c2)C1` (stereo not drawn) [Example 110, 4-({2-[(3-chlorophenoxy)methyl]morpholin-4-yl}carbonyl)benzene-1,3-diol], the inhibition at 1 µM was found to be 55.3% and the inhibition at 10 µM was found to be 82.8%. For the compound `C[C@H](c1ccccc1)N(C)C(=O)c1ccc(O)cc1O` [Example 67, 2,4-dihydroxy-N-methyl-N-(1-phenylethyl)benzamide], the inhibition at 1 µM is -0.8% and the inhibition at 10 µM was 35.4%.

`Cc1ccc(OC2CCN(C(=O)c3ccc(O)cc3O)CC2)cc1` [Example 74, 4-{[4-(4-methylphenoxy)piperidin-1-yl]carbonyl}benzene-1,3-diol]: the inhibition at 1 µM came out at 47.7% and the inhibition at 10 µM stood at 80.7%.

In the case of `CN(Cc1ccccc1Cl)C(=O)c1ccc(O)cc1O` [Example 113, N-(2-chlorobenzyl)-2,4-dihydroxy-N-methylbenzamide], the inhibition at 1 µM is 53% and the inhibition at 10 µM is 81.9%.

Take `O=C(c1ccc(O)cc1O)N1CCCC(CCOc2ccccc2)C1` (stereo not drawn) [Example 55, 4-{[3-(2-phenoxyethyl)piperidin-1-yl]carbonyl}benzene-1,3-diol]: the inhibition at 1 µM came to 77.4% and the inhibition at 10 µM came to 87%.

Take `O=C(c1ccc(O)cc1O)N1CCOCC(O)(COCC2CC2)C1` (stereo not drawn) [Example 38]: the inhibition at 1 µM was found to be 27.4% and the inhibition at 10 µM amounted to 68.4%. For the compound `COc1ccc2cc(O)c(C(=O)N3Cc4ccccc4C3)cc2c1` [Example 25, 3-(1,3-dihydro-2H-isoindol-2-ylcarbonyl)-6-methoxy-2-naphthol], the inhibition at 1 µM was 9.9% and the inhibition at 10 µM worked out at 13.7%. As for `O=C(c1ccc(O)cc1O)N1CCOC(COc2cc(F)cc(F)c2)C1` (stereo not drawn) [Example 114, 4-({2-[(3,5-difluorophenoxy)methyl]morpholin-4-yl}carbonyl)benzene-1,3-diol], the inhibition at 1 µM was determined as 60.2% and the inhibition at 10 µM is 83.2%.

Regarding `CN(C(=O)c1ccc(O)cc1O)[C@@H]1CCCC[C@H]1O` [Example 40, 2,4-dihydroxy-N-(2-hydroxycyclohexyl)-N-methylbenzamide], the inhibition at 1 µM was 13.2% and the inhibition at 10 µM is 49.1%. Regarding `O=C(c1ccc(O)cc1O)N1CCOCC2(CC(c3c(F)cccc3F)=NO2)C1` (stereo not drawn) [Example 131, 4-{[3-(2,6-difluorophenyl)-1,7-dioxa-2,10-diazaspiro[4.6]undec-2-en-10-yl]carbonyl}benzene-1,3-diol], the inhibition at 1 µM stood at 24.7% and the inhibition at 10 µM came to 69.6%. On to `O=C(c1ccc(O)cc1O)N1CCc2ccccc2C1` [Example 109, 4-(3,4-dihydroisoquinolin-2(1H)-ylcarbonyl)benzene-1,3-diol], for which the inhibition at 1 µM was found to be 68% and the inhibition at 10 µM amounted to 87.2%. Turning to `Nc1nccc(-c2ccc(O)c(C(=O)N3Cc4ccccc4C3)c2)n1` [Example 31, 4-(2-aminopyrimidin-4-yl)-2-(1,3-dihydro-2H-isoindol-2-ylcarbonyl)phenol], the inhibition at 1 µM was determined as 8.1% and the inhibition at 10 µM was 12.9%.

As for `O=C(c1ccc(O)cc1O)N1CCC(c2ccccc2)C1` (stereo not drawn) [Example 93, 4-[(3-phenylpyrrolidin-1-yl)carbonyl]benzene-1,3-diol], the inhibition at 1 µM stood at 34.5% and the inhibition at 10 µM was 76.1%.

As for `O=C(c1ccc(O)cc1O)N1CCN(c2cnccn2)CC1` [Example 111, 4-[(4-pyrazin-2-ylpiperazin-1-yl)carbonyl]benzene-1,3-diol], the inhibition at 1 µM turned out to be 5.9% and the inhibition at 10 µM amounted to 64.2%.
